Test results as given in PubChem BioAssay AID1745844 (Carcinogenic Potency Database (CPDB), 2022).
Values joined by “and” are separate entries in the source; they are usually repeats but may differ in a detail not shown here. Equal values may be shown once. Active and inactive are the calls of the source. No rule for the calls is given here.

Tested on: rodent lifetime carcinogenesis bioassay, tumor incidence TD50
Test: carcinogenic potency in animals, long-term in vivo studies, CPDB compilation (AID 1745844)

## CC1CN(N=O)CC(C)O1 (stereo not drawn)
hamster, strain Syrian Golden, females, by gavage, site: any site (literature study), lesion: several types, types named in the paper, dosed 59 weeks, study length 83 weeks
  TD50: 1.55 mg/kg/day
hamster, strain Syrian Golden, females, by gavage, site: forestomach, lesion: several types, types named in the paper, dosed 59 weeks, study length 83 weeks
  TD50: 9.45 mg/kg/day
hamster, strain Syrian Golden, females, by gavage, site: gall bladder, lesion: several types, types named in the paper, dosed 59 weeks, study length 83 weeks
  TD50: 12.9 mg/kg/day
hamster, strain Syrian Golden, females, by gavage, site: larynx, lesion: squamous-cell papilloma, dosed 59 weeks, study length 83 weeks
  carcinogen call: positive
hamster, strain Syrian Golden, females, by gavage, site: liver, lesion: several types, types named in the paper, dosed 59 weeks, study length 83 weeks
  TD50: 11 mg/kg/day
hamster, strain Syrian Golden, females, by gavage, site: lung, lesion: several types, types named in the paper, dosed 59 weeks, study length 83 weeks
  TD50: 34.6 mg/kg/day
hamster, strain Syrian Golden, females, by gavage, site: pancreas, lesion: several types, types named in the paper, dosed 59 weeks, study length 83 weeks
  TD50: 5.75 mg/kg/day
hamster, strain Syrian Golden, females, by gavage, site: pancreatic duct, lesion: adenoma, dosed 59 weeks, study length 83 weeks
  TD50: 6.99 mg/kg/day
hamster, strain Syrian Golden, females, by gavage, site: pancreatic duct, lesion: carcinoma, dosed 59 weeks, study length 83 weeks
  TD50: 32.1 mg/kg/day
hamster, strain Syrian Golden, females, by gavage, site: several sites, sites named in the paper, lesion: several types, types named in the paper, dosed 59 weeks, study length 83 weeks
  TD50: 9.17 mg/kg/day and 16.9 mg/kg/day
hamster, strain Syrian Golden, females, by gavage, site: trachea, lesion: papillary polyp, dosed 59 weeks, study length 83 weeks
  TD50: 6.4 mg/kg/day
hamster, strain Syrian Golden, males, by gavage, site: any site (literature study), lesion: several types, types named in the paper, dosed 66 weeks, study length 87 weeks
  TD50: 1.68 mg/kg/day
hamster, strain Syrian Golden, males, by gavage, site: forestomach, lesion: several types, types named in the paper, dosed 66 weeks, study length 87 weeks
  TD50: 2.91 mg/kg/day
hamster, strain Syrian Golden, males, by gavage, site: larynx, lesion: squamous-cell papilloma, dosed 66 weeks, study length 87 weeks
  TD50: 27.3 mg/kg/day
hamster, strain Syrian Golden, males, by gavage, site: liver, lesion: several types, types named in the paper, dosed 66 weeks, study length 87 weeks
  TD50: 10.1 mg/kg/day
hamster, strain Syrian Golden, males, by gavage, site: lung, lesion: several types, types named in the paper, dosed 66 weeks, study length 87 weeks
  TD50: 1.21 mg/kg/day
hamster, strain Syrian Golden, males, by gavage, site: pancreas, lesion: several types, types named in the paper, dosed 66 weeks, study length 87 weeks
  TD50: 2.78 mg/kg/day
hamster, strain Syrian Golden, males, by gavage, site: pancreatic duct, lesion: adenoma, dosed 66 weeks, study length 87 weeks
  TD50: 21.2 mg/kg/day
hamster, strain Syrian Golden, males, by gavage, site: pancreatic duct, lesion: carcinoma, dosed 66 weeks, study length 87 weeks
  TD50: 6.67 mg/kg/day
hamster, strain Syrian Golden, males, by gavage, site: trachea, lesion: papillary polyp, dosed 66 weeks, study length 87 weeks
  TD50: 10.5 mg/kg/day

## CC(C)(Oc1ccc(C2CCCc3ccccc32)cc1)C(=O)O (stereo not drawn)
hamster, strain Syrian, MB strain, males, in feed, site: liver, lesion: several types, types named in the paper, dosed 60 weeks, study length 60 weeks
  carcinogen call: negative (inactive)
rat, strain Fischer 344, males, in feed, site: liver, lesion: hepatocellular carcinoma, dosed 108 weeks, study length 108 weeks
  TD50: 22.4 mg/kg/day
rat, strain Fischer 344, males, in feed, site: pancreas, lesion: acinar-cell adenoma, dosed 108 weeks, study length 108 weeks
  TD50: 207 mg/kg/day
rat, strain Fischer 344, males, in feed, site: pancreas, lesion: acinar-cell carcinoma, dosed 108 weeks, study length 108 weeks
  TD50: 428 mg/kg/day
rat, strain Fischer 344, males, in feed, site: pancreas, lesion: several types, types named in the paper, dosed 108 weeks, study length 108 weeks
  TD50: 132 mg/kg/day
rat, strain Sprague-Dawley, males, in feed, site: liver, lesion: several types, types named in the paper, dosed 60 weeks, study length 60 weeks
  TD50: 3.51 mg/kg/day
rat, strain Wistar, females, in feed, site: liver, lesion: hepatocellular adenoma, dosed 70 weeks, study length 70 weeks
  TD50: 55.5 mg/kg/day
rat, strain Wistar, females, in feed, site: liver, lesion: hepatocellular carcinoma, dosed 55 weeks, study length 55 weeks
  TD50: 163 mg/kg/day
rat, strain Wistar, females, in feed, site: liver, lesion: hepatocellular carcinoma, dosed 70 weeks, study length 70 weeks
  TD50: 92.3 mg/kg/day
rat, strain Wistar, females, in feed, site: liver, lesion: several types, types named in the paper, dosed 55 weeks, study length 55 weeks
  TD50: 163 mg/kg/day
rat, strain Wistar, females, in feed, site: liver, lesion: several types, types named in the paper, dosed 70 weeks, study length 70 weeks
  TD50: 36.6 mg/kg/day
rat, strain Wistar, males, in feed, site: any site (literature study), lesion: one or several types, types not named, dosed 59 weeks, study length 59 weeks
  TD50: 12.3 mg/kg/day
rat, strain Wistar, males, in feed, site: liver, lesion: hepatocellular adenoma, dosed 57 weeks, study length 57 weeks
  TD50: 38.8 mg/kg/day
rat, strain Wistar, males, in feed, site: liver, lesion: hepatocellular adenoma, dosed 59 weeks, study length 59 weeks
  TD50: 48 mg/kg/day
rat, strain Wistar, males, in feed, site: liver, lesion: hepatocellular carcinoma, dosed 57 weeks, study length 57 weeks
  TD50: 59.1 mg/kg/day
rat, strain Wistar, males, in feed, site: liver, lesion: hepatocellular carcinoma, dosed 59 weeks, study length 59 weeks
  TD50: 58.1 mg/kg/day
rat, strain Wistar, males, in feed, site: liver, lesion: several types, types named in the paper, dosed 57 weeks, study length 57 weeks
  TD50: 19.8 mg/kg/day
rat, strain Wistar, males, in feed, site: liver, lesion: several types, types named in the paper, dosed 59 weeks, study length 59 weeks
  TD50: 22.1 mg/kg/day

## OCc1ccco1
mouse, strain B6C3F1, females, inhaled, site: any site (literature study), lesion: several types, types named in the paper, dosed 104 weeks, study length 104 weeks
  carcinogen call: negative (inactive)
mouse, strain B6C3F1, females, inhaled, site: lung, lesion: alveolar/bronchiolar adenoma + alveolar/bronchiolar carcinoma, dosed 104 weeks, study length 104 weeks
  TD50: 41.8 mg/kg/day
mouse, strain B6C3F1, males, inhaled, site: kidney, lesion: tubule adenoma + tubule carcinoma, dosed 104 weeks, study length 104 weeks
  TD50: 263 mg/kg/day and 291 mg/kg/day
mouse, strain B6C3F1, males, inhaled, site: kidney, lesion: tubule adenoma, dosed 104 weeks, study length 104 weeks
  TD50: 538 mg/kg/day and 492 mg/kg/day
mouse, strain B6C3F1, males, inhaled, site: kidney, lesion: tubule carcinoma, dosed 104 weeks, study length 104 weeks
  TD50: 538 mg/kg/day and 744 mg/kg/day
rat, strain Fischer 344, females, inhaled, site: all sites, lesion: mononuclear-cell leukemia, dosed 105 weeks, study length 105 weeks
  TD50: 10.1 mg/kg/day
rat, strain Fischer 344, females, inhaled, site: any site (literature study), lesion: several types, types named in the paper, dosed 105 weeks, study length 105 weeks
  TD50: 7.57 mg/kg/day
rat, strain Fischer 344, females, inhaled, site: clitoral gland, lesion: adenoma + adenoma, bilateral + carcinoma + carcinoma, bilateral, dosed 105 weeks, study length 105 weeks
  TD50: 27.8 mg/kg/day
rat, strain Fischer 344, females, inhaled, site: clitoral gland, lesion: adenoma + adenoma, bilateral, dosed 105 weeks, study length 105 weeks
  TD50: 35.7 mg/kg/day
rat, strain Fischer 344, females, inhaled, site: kidney, lesion: tubule adenoma + tubule carcinoma, dosed 105 weeks, study length 105 weeks
  TD50: 110 mg/kg/day and 161 mg/kg/day
rat, strain Fischer 344, females, inhaled, site: kidney, lesion: tubule adenoma, dosed 105 weeks, study length 105 weeks
  TD50: 113 mg/kg/day and 108 mg/kg/day
rat, strain Fischer 344, females, inhaled, site: nasal cavity, respiratory epithelium, lateral wall, lesion: adenoma, dosed 105 weeks, study length 105 weeks
  carcinogen call: e
rat, strain Fischer 344, females, inhaled, site: nasal cavity, respiratory epithelium, lesion: adenoma, dosed 105 weeks, study length 105 weeks
  TD50: 161 mg/kg/day
rat, strain Fischer 344, males, inhaled, site: Zymbal's gland, lesion: adenoma + carcinoma, dosed 102 weeks, study length 105 weeks
  TD50: 17.4 mg/kg/day
rat, strain Fischer 344, males, inhaled, site: any site (literature study), lesion: several types, types named in the paper, dosed 102 weeks, study length 105 weeks
  TD50: 1.46 mg/kg/day
rat, strain Fischer 344, males, inhaled, site: nasal cavity, respiratory epithelium, lateral wall + nasal cavity, respiratory epithelium, lesion: adenoma + carcinoma + squamous-cell carcinoma, dosed 102 weeks, study length 105 weeks
  TD50: 9.6 mg/kg/day
rat, strain Fischer 344, males, inhaled, site: nasal cavity, respiratory epithelium, lesion: squamous-cell carcinoma, dosed 102 weeks, study length 105 weeks
  TD50: 46.4 mg/kg/day

## CC(=O)Oc1c(C)c(C)c2c(c1C)CCC(C)(CCCC(C)CCCC(C)CCCC(C)C)O2 (stereo not drawn)
rat, strain Charles River CD (Sprague-Dawley), females, in feed, site: any site (literature study), lesion: malignant tumor, dosed 104 weeks, study length 104 weeks
  carcinogen call: negative (inactive)
rat, strain Charles River CD (Sprague-Dawley), females, in feed, site: any site (literature study), lesion: several types, types named in the paper, dosed 104 weeks, study length 104 weeks
  carcinogen call: negative (inactive)
rat, strain Charles River CD (Sprague-Dawley), females, in feed, site: liver, lesion: one or several types, types not named, dosed 52 weeks, study length 52 weeks
  carcinogen call: negative (inactive)
rat, strain Charles River CD (Sprague-Dawley), females, in feed, site: liver, lesion: one or several types, types not named, dosed 104 weeks, study length 104 weeks
  carcinogen call: negative (inactive)
rat, strain Charles River CD (Sprague-Dawley), males, in feed, site: any site (literature study), lesion: malignant tumor, dosed 104 weeks, study length 104 weeks
  TD50: 67800 mg/kg/day (inactive)
rat, strain Charles River CD (Sprague-Dawley), males, in feed, site: any site (literature study), lesion: several types, types named in the paper, dosed 104 weeks, study length 104 weeks
  TD50: 67800 mg/kg/day (inactive)
rat, strain Charles River CD (Sprague-Dawley), males, in feed, site: liver, lesion: one or several types, types not named, dosed 52 weeks, study length 52 weeks
  carcinogen call: negative (inactive)
rat, strain Charles River CD (Sprague-Dawley), males, in feed, site: liver, lesion: one or several types, types not named, dosed 104 weeks, study length 104 weeks
  carcinogen call: negative (inactive)
